Tested on: mechanical allodynia/hyperalgesia in rats with unilateral ligatures of the sciatic nerve
Experiment: Randall-Selitto test (pressure thresholds for paw withdrawal and vocalization) in rats with unilateral ligatures of the sciatic nerve
Format: in vivo
Settings: two weeks after sciatic nerve ligature, cizolirtine 5 mg/kg i.p., gabapentin 30 mg/kg i.p., or both 5 min apart; for pressure thresholds for triggering vocalization (analgesic effect): Figure 2; for pressure thresholds to trigger paw withdrawal (analgesic effect): ipsilateral right hindpaw, Figure 1
Protocol: Ligatures of the right sciatic nerve were made in pentobarbital (50 mg/kg i.p.)-anesthetized rats according to the classical protocol of Bennett and Xie (1988) which is well known by those skilled in the art. Sham operated animals were subjected to the same surgical procedure except that the nerve was not ligated. Prior to surgery and two weeks afterwards, rats were subjected to the Randall-Selitto test to determine the pressure thresholds for triggering withdrawal of the ipsilateral, right hindpaw and vocalization. Animals were then immediately injected with either cizolirtine (5 mg/kg i.p.), gabapentin (30 mg/kg i.p.) or both drugs. In the latter case, a 5 min interval elapsed between the injection of cizolirtine (1st) and that of gabapentin (2nd). Time 0 on the abscissa (see Figs 1 & 2) corresponded to the second injection. The Randall-Selitto test was then applied for the determination of pressure thresholds at various times up to at least 5 hours thereafter.

SMILES | pressure thresholds for triggering vocalization (analgesic effect) | pressure thresholds to trigger paw withdrawal (analgesic effect)
CN(C)CCOC(c1ccccc1)c1ccnn1C (racemic) [Cizolirtine, (±)-N,N-dimethyl-2-((1-methyl-1H-pyrazol-5-yl)(phenyl)methoxy)ethanamine] | decrease the threshold to trigger vocalization | decrease the pressure threshold to trigger paw withdrawal
NCC1(CC(=O)O)CCCCC1 [Gabapentin, 1-(aminomethyl) cyclohexaneacetic acid] | decrease the threshold to trigger vocalization | decrease the pressure threshold to trigger paw withdrawal

Reference: patent publication EP1820502A1, “Active substance combination comprising azolylcarbinol compounds” (LABORATORIOS DEL DR. ESTEVE, S.A., priority 2006, dated 2007)
